# Results as given in PMC9532399, “The lysosomal transporter TAPL has a dual role as peptide translocator and phosphatidylserine floppase” (Nature Communications, 2022).
# Experiments:
# TAPL N301A mutant = assay: Peptide transport assay, N301A; type: biochemical, mouse; conditions: 9-mer 10 mM (sic), 3 mM ATP
# Description: (§1) Proteoliposomes for peptide transport assays were prepared according to the protocol of Zhao et al., with some modifications. Briefly, E. coli polar lipid extract dissolved in chloroform was dried under a gentle stream of nitrogen. The thin film of lipids was placed under a desiccator overnight to completely remove residual chloroform and then hydrated in 1X PBS buffer pH 7.4 (137 mM NaCl, 2.7 mM KCl, 8 mM Na2HPO4, and 2 mM KH2PO4) with 10 mM MgCl2 and 5% (v/v) glycerol. After water bath sonication at 22 °C for 5 min (Powersonic 610, KLEENTEK), the lipid solution was extruded using a Mini-Extruder equipped with a polycarbonate membrane filter (200 nm pore) (Avanti Polar Lipids, Inc.) to obtain unilamellar vesicles, which were destabilized with 0.36% (w/v) DM. The DM-purified protein and lipid suspension were mixed in a 1:50 (w/w) ratio. After incubation at 4 °C for 2 h, the mixture was treated with Bio-Beads SM-2 resin (60 and 120 mg, see above) at 4 °C for a total of 18 h to remove detergent. The proteoliposomes were collected by centrifugation at 200,000×g for 1.5 h at 4 °C and resuspended in the buffer described above.
# (§2) The peptide transport activity of ΔTMD0 was measured as described previously. Briefly, 50 μL of ΔTMD0-loaded proteoliposomes (~0.6 μg protein) were added into 200 μL reaction buffer containing 1X PBS pH 7.4, 3 mM ATP, and 10 mM MgCl2 in the presence or absence of 10 μM 5-IAF-labeled peptides. To investigate transport activity, the mixture was incubated at 37 °C for 10 min. The reaction was terminated by incubating the mixture for 20 min on ice. Proteoliposomes were collected by centrifugation at 200,000×g for 30 min and then washed twice with 1X PBS. The proteoliposomes were completely disrupted by adding 10% (w/v) SDS solution (final concentration, 2%). The transported peptide was measured using a microplate reader (Gemini XPS) with excitation at 485 nm and emission at 520 nm.
# mouse TAPL ΔTMD0 = target: T1, mouse TAPL ΔTMD0 (Mus musculus, UniProt Q9JJ59); assay: Peptide transport assay, ΔTMD0 proteoliposomes; type: biochemical; conditions: for Transport activity: peptide 10 mM (sic)
# T1 construct: thrombin cleavage site (C); eGFP (C); 10XHis (C); made in house; host or cells: Trichoplusia ni High Five (Hi5) insect cells, baculovirus (pVL1393)
# T1 sequence (Q9JJ59 143-762): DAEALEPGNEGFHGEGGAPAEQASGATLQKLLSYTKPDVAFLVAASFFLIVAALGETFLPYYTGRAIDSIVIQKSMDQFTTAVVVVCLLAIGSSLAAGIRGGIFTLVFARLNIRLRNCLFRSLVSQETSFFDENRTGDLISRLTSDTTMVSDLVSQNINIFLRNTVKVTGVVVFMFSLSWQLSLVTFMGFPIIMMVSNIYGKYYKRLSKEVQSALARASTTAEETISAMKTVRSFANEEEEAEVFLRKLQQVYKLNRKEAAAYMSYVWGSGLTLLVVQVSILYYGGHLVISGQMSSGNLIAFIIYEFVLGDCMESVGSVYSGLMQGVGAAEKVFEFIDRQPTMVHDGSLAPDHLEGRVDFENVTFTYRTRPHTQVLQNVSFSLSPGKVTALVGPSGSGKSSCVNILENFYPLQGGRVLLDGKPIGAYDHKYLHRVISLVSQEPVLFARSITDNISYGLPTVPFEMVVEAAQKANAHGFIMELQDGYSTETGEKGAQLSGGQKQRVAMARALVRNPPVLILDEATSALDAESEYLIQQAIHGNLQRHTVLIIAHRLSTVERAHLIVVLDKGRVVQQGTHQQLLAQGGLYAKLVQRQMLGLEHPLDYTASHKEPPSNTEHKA
# Description: as §1, §2
substance,measurement,setting,value
"RRYQNSTC^5-IAFL [9-mer, 5-IAF-labeled peptide of 9 residues (RRYQNSTC^5-IAFL)]",Transport activity,TAPL N301A mutant; replicate I,112.671%
same,Transport activity,TAPL N301A mutant; replicate II,153.066%
same,Transport activity,TAPL N301A mutant; replicate III,131.453%
same,Transport activity,"TAPL N301A mutant; wild-type = 100%, mean n=3",132.396%
same,peptide transport,"mouse TAPL ΔTMD0; ATP-dependent, 5-IAF-labeled peptides",preferentially transported
same,Transport activity,"mouse TAPL ΔTMD0; + 3 mM ATP, 9-mer + ATP set at 100%, 37 °C 10 min, mean n=3",100%
same,Transport activity,"mouse TAPL ΔTMD0; + 3 mM ATP, replicate I",101.702%
same,Transport activity,"mouse TAPL ΔTMD0; + 3 mM ATP, replicate II",98.4079%
same,Transport activity,"mouse TAPL ΔTMD0; + 3 mM ATP, replicate III",99.8902%
same,Transport activity,"mouse TAPL ΔTMD0; no ATP, 9-mer + ATP set at 100%, mean n=3",5.331%
same,Transport activity,"mouse TAPL ΔTMD0; no ATP, replicate I",5.213%
same,Transport activity,"mouse TAPL ΔTMD0; no ATP, replicate II",5.414%
same,Transport activity,"mouse TAPL ΔTMD0; no ATP, replicate III",5.365%
